# Laboratory results published in patent US8791132B2, “Compounds and methods for treatment of hypertension” (Medivation Technologies, Inc., priority 2011, dated 2014).
# Several values for one entry are separate records, joined by “and”; a condition that tells them apart may be missing. Equal values may be shown once. Read-outs that look alike come from different tables or passages of the source.
# Experiments:
# [1] = molecular target: T1, rat adrenergic α1B receptor (Rattus norvegicus, UniProt P15823); assay: Radioligand binding, adrenergic α1B ([3H]Prazosin); settings: for Percentage inhibition of ligand binding, Adrenergic α1B: 0.1 µM
# T1 construct: rat adrenergic α1B receptor obtained from Wistar Rat liver; from tissue; host or cells: Wistar rat liver
# T1 sequence (P15823 1-515): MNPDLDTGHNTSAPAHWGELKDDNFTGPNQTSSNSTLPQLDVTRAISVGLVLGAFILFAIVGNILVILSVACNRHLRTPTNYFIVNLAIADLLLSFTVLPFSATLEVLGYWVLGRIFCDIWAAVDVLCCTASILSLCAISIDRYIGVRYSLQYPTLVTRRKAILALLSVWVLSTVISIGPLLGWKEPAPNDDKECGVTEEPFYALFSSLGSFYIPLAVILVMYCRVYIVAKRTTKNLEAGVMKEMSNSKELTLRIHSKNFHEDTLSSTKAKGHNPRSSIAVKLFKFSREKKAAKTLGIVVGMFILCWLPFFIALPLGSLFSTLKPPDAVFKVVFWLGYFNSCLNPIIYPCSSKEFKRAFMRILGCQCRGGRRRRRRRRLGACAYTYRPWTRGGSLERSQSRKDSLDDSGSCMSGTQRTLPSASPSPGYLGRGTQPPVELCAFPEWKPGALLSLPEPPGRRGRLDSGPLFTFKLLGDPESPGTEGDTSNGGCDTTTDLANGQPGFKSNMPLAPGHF
# Summary of the method: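 Incubation ran 60 min at 25 °C in Tris-HCl buffer (50 mM, pH 7.4, 0.5 mM EDTA) with Wistar rat liver α1B receptor. 10 μM phentolamine set non-specific binding.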
# [2] = molecular target: T2, human recombinant adrenergic α2A receptor (Homo sapiens, UniProt P08913); assay: Radioligand binding, adrenergic α2A ([3H]MK-912); settings: for Percentage inhibition of ligand binding, Adrenergic α2A: 0.1 µM
# T2 construct: expressed in transfected cells; host or cells: insect Sf9 cells
# T2 sequence (P08913 1-465): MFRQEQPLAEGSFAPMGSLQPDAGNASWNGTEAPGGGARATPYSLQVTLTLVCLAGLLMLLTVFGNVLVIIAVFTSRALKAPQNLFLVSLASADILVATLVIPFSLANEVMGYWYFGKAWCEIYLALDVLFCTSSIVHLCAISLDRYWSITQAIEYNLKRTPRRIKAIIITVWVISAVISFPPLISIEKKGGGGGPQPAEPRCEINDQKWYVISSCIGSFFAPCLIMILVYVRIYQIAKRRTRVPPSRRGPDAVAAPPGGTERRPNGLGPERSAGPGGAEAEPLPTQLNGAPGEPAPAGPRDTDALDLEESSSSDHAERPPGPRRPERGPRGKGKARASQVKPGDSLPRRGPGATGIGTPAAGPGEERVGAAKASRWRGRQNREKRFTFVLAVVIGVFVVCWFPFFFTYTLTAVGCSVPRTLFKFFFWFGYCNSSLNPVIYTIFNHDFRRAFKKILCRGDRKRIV
# Summary of the method: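 In 50 mM Tris-HCl (pH 7.4) containing 12.5 mM MgCl2 and 2 mM EDTA, Sf9-expressed receptor was exposed to test compound plus 1 nM [3H]MK-912 at 25 °C for 60 min. Specific binding, corrected using 10 μM WB-4101, was quantified by filtration and counting and expressed as percent inhibition.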
# [3] = molecular target: T3, human recombinant adrenergic α1D receptor (Homo sapiens, UniProt P25100); assay: Radioligand binding, adrenergic α1D ([3H]Prazosin); settings: for Percentage inhibition of ligand binding, Adrenergic α1D: 0.1 µM
# T3 construct: expressed in transfected cells; host or cells: HEK-293
# T3 sequence (P25100 1-572): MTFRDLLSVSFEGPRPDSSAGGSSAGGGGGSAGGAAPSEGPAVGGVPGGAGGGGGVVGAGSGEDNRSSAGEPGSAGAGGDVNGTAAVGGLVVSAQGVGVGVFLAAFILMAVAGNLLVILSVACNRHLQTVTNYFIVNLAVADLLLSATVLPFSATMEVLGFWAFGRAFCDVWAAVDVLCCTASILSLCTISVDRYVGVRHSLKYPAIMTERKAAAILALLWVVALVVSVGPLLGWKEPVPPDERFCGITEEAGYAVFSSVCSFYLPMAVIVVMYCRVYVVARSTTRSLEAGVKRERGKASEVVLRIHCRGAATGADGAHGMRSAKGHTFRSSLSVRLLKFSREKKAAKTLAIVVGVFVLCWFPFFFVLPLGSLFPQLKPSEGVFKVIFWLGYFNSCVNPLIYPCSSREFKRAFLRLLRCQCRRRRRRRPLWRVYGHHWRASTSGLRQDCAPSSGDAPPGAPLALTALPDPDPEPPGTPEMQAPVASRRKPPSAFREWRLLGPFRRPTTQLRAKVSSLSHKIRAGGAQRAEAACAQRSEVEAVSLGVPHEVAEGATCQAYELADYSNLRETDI
# Procedure: Compounds were incubated with 0.6 nM [3H]Prazosin for 60 min at 25° C. Non-specific binding was estimated in the presence of 10 μM phentolamine. Receptor proteins were filtered and washed, the filters were then counted to determine [3H]Prazosin specifically bound. […] Biochemical assay results are presented as the percent inhibition of specific binding in Table B1.
# [4] = molecular target: T4, human recombinant adrenergic α2B receptor (Homo sapiens, UniProt P18089); assay: Radioligand binding, adrenergic α2B ([3H]Rauwolscine)
# T4 construct: expressed in transfected cells; host or cells: CHO-K1
# T4 sequence (P18089 1-450): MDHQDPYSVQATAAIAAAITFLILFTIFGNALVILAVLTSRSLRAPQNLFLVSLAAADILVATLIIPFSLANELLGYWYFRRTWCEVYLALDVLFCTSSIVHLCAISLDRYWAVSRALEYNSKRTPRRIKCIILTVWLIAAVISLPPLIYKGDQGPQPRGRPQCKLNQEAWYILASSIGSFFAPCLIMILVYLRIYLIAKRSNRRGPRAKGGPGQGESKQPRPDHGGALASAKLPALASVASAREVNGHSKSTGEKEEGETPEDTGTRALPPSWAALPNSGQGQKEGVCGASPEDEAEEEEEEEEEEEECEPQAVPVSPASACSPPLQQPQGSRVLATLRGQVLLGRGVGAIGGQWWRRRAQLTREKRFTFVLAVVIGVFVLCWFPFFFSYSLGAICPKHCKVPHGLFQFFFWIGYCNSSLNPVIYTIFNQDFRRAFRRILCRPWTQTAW
# Summary of the method: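 Readout: percent inhibition of specific [3H]Rauwolscine binding, measured by filtration and counting. Conditions: CHO-K1 cell-expressed receptor, 2.5 nM radioligand, 60 min, 25° C, Tris-HCl pH 7.4 buffer with MgCl2, EDTA, BSA. Non-specific binding: 10 μM Prazosin.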
# [5] = 0.1 μM compound, read-out: Percentage inhibition of ligand binding, Adrenergic α1B
# [6] = 0.1 μM compound, read-out: Percentage inhibition of ligand binding, Adrenergic α2A
# [7] = 0.1 μM compound, read-out: Percentage inhibition of ligand binding, Adrenergic α1D
# [8] = 0.1 μM compound, read-out: Percentage inhibition of ligand binding, Adrenergic α2B
# [9] = read-out: Percentage inhibition of ligand binding, Adrenergic α1B (0.1 μM), compound at 0.1 μM, [3H]Prazosin, repeat datapoints each shown
# [10] = read-out: Percentage inhibition of ligand binding, Adrenergic α2A (0.1 μM), compound at 0.1 μM, [3H]MK-912, repeat datapoints each shown
# [11] = read-out: Percentage inhibition of ligand binding, Adrenergic α1D (0.1 μM), compound at 0.1 μM, [3H]Prazosin, repeat datapoints each shown
# [12] = read-out: Percentage inhibition of ligand binding, Adrenergic α2B (0.1 μM), compound at 0.1 μM, [3H]Rauwolscine, repeat datapoints each shown
"inhibition at 0.1 µM [1, 5] [%]","inhibition at 0.1 µM [2, 6] [%]","inhibition at 0.1 µM [3, 7] [%]","inhibition at 0.1 µM [4, 8] [%]",Structure (SMILES),also measured
41,94,51,86,"Cc1ccc2c(c1)c1c(n2CCc2ccc3c(c2)CCCC3)CCN(C)C1 [compound 332, 2,8-dimethyl-5-[2-(5,6,7,8-tetrahydro-naphthalen-2-yl)-ethyl]-2,3,4,5-tetrahydro-1H-pyrido[4,3-b]indole]",
,,,,C/C(=C\n1c2c(c3cc(C)ccc31)C1CCC(C2)N1C)c1ccccc1F (stereo not shown) [compound 231],"inhibition at 0.1 µM [1, 9]: 48%; inhibition at 0.1 µM [2, 10]: 65%; inhibition at 0.1 µM [3, 11]: 26%; inhibition at 0.1 µM [4, 12]: 87%"
65,52,16,88,"Cc1ccc2c(c1)c1c(n2C#Cc2ccc(S(N)(=O)=O)cc2)CN(C)CC1 [compound 333, 4-(2,6-dimethyl-1,2,3,4-tetrahydro-β-carbolin-9-ylethynyl)-benzenesulfonamide]",
54,31,11,78,Cc1ccc(C(C)(O)Cn2c3c(c4cc(Cl)ccc42)CN(C)CC3)cc1 (stereo not shown) [II-56],
86,71,81,101,C/C(=C/n1c2c(c3cc(C)ccc31)CN(C)CC2)c1ccc(F)nc1 [compound 276],
69,50,36,46,"Cc1ccc2c(c1)c1c(n2CCc2cccc(C)n2)CCN(C)C1 [compound 297, 2,8-dimethyl-5-[2-(6-methyl-pyridin-2-yl)-ethyl]-2,3,4,5-tetrahydro-1H-pyrido[4,3-b]indole]",
54,44,18,,CN1CCc2c(c3cc(Cl)c(Cl)cc3n2CC(C)(O)c2ccncc2)C1 (stereo not shown) [compound 253],"Percentage inhibition of ligand binding, Adrenergic α1B ([1]; 0.1 μM compound): 55%; Percentage inhibition of ligand binding, Adrenergic α2A ([2]; 0.1 μM compound): 64%; Percentage inhibition of ligand binding, Adrenergic α1D ([3]; 0.1 μM compound): 24%; Percentage inhibition of ligand binding, Adrenergic α2B ([4]; 0.1 μM compound, 0.1 µM): 64% and 86%"
54,43,66,108,CCc1ccc(/C(C)=C/n2c3c(c4cc(C)ccc42)CN(C)CC3)cn1 [II-77],
63,98,71,97,C/C(=C\n1c2c(c3cc(C)ccc31)CN(C)CC2)c1cc(C)cs1 [compound 285],
89,61,71,7,"Cc1ccc2c(c1)c1c(n2CCc2cccc3c2CCNC3)CCN(C)C1 [compound 317, 2,8-dimethyl-5-[2-(1,2,3,4-tetrahydro-isoquinolin-5-yl)-ethyl]-2,3,4,5-tetrahydro-1H-pyrido[4,3-b]indole]",
37,62,22,105,C/C(=C\n1c2c(c3cc(C)ccc31)CN(C)CC2)c1cccnc1 [compound 250],
61,66,56,18,Cc1ccc2c(c1)c1c(n2CCc2cnc3ccccc3c2)CCN(C)C1 [compound 320],
1,61,6,54,Cc1ccc2c(c1)c1c(n2CC(O)(c2ccccc2)c2ccccc2)CCN(C)C1 [compound 263],
,,,,COc1ccc(C(C)(O)Cn2c3c(c4cc(C)ccc42)CN(C)CC3)cc1 (stereo not shown) [254b],"Percentage inhibition of ligand binding, Adrenergic α1B ([1]; 0.1 μM compound): 63%; Percentage inhibition of ligand binding, Adrenergic α2A ([2]; 0.1 μM compound): 57%; Percentage inhibition of ligand binding, Adrenergic α1D ([3]; 0.1 μM compound): 22%; Percentage inhibition of ligand binding, Adrenergic α2B ([4]; 0.1 μM compound, 0.1 µM): 79%"
,,,,C/C(=C\n1c2c(c3cc(Cl)ccc31)C1CCC(C2)N1C)c1cccnc1 (stereo not shown) [compound 97],"inhibition at 0.1 µM [1, 9]: 3%; inhibition at 0.1 µM [2, 10]: -12%; inhibition at 0.1 µM [3, 11]: -7%; inhibition at 0.1 µM [4, 12]: 88%"
67,72,47,90,C/C(=C\n1c2c(c3cc(Cl)ccc31)CN(C)CC2)c1ccc(S(C)(=O)=O)cc1 [compound 281],
,,,,"Cc1ccc2c(c1)c1c(n2CC(C)c2ccc(C)nc2)CCN(C)C1 (single isomer, unassigned) [289b]","Percentage inhibition of ligand binding, Adrenergic α1B ([1]; 0.1 μM compound): 12%; Percentage inhibition of ligand binding, Adrenergic α2A ([2]; 0.1 μM compound): 53%; Percentage inhibition of ligand binding, Adrenergic α1D ([3]; 0.1 μM compound): −2%; Percentage inhibition of ligand binding, Adrenergic α2B ([4]; 0.1 μM compound): 54%"
26,80,19,60,C/C(=C/n1c2c(c3cc(C)ccc31)CN(C)CC2)c1cccc2ccccc12 [compound 286],
14,67,29,86,"Cc1ccc2c(c1)c1c(n2C2=C(c3cccnc3)CCC2)CCN(C)C1 [compound 300, 2,8-dimethyl-5-(2-(pyridin-3-yl)cyclopent-1-enyl)-2,3,4,5-tetrahydro-1H-pyrido[4,3-b]indole]",
